Experimental data taken from ChEMBL document CHEMBL1201862, “PubChem BioAssay data set” (2004).
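Results reflect a 48-hour exposure of cells in 96-well plates to compound at five concentrations. GI50 marks 50% less growth.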 Active and inactive are the calls of the source. Cut-off read from the data, not from the text of the source: active = GI50 up to about 1.1 µM and inactive = higher.

Legend:
Test in all cases: growth of human tumour cells (NCI), 48 h
A549 = test system: A549
SK-MEL-28 = test system: SK-MEL-28
NCI-H460 = test system: NCI-H460
HOP-92 = test system: HOP-92
SF-268 = test system: SF-268
HCT-15 = test system: HCT-15
Malme-3M = test system: Malme-3M
SK-OV-3 = test system: SK-OV-3
RXF 393 = test system: RXF 393
RPMI-8226 = test system: RPMI-8226
K562 = test system: K562
OVCAR-3 = test system: OVCAR-3
M14 = test system: M14
TK-10 = test system: TK-10
HL-60 = test system: HL-60
UACC-257 = test system: UACC-257
NCI-H226 = test system: NCI-H226
A498 = test system: A498
CAKI-1 = test system: CAKI-1
SW-620 = test system: SW-620

Structure (SMILES) | GI50 (A549) | GI50 (SK-MEL-28) | GI50 (NCI-H460) | GI50 (HOP-92) | GI50 (SF-268) | GI50 (HCT-15) [µM] | GI50 (Malme-3M) | GI50 (SK-OV-3) | GI50 (RXF 393) | GI50 (RPMI-8226) | GI50 (K562) | GI50 (OVCAR-3) | GI50 (M14) | GI50 (TK-10) | GI50 (HL-60) | GI50 (UACC-257) | GI50 (NCI-H226) | GI50 (A498) | GI50 (CAKI-1) | GI50 (SW-620)
CC(=O)N1CN2C(=O)CCC2c2ccccc21 (stereo not given) | > 100 µM (inactive) | > 100 µM (inactive) | > 100 µM (inactive) | > 100 µM (inactive) | > 100 µM (inactive) | > 100 | > 100 µM (inactive) | > 100 µM (inactive) | > 100 µM (inactive) | > 100 µM (inactive) | > 100 µM (inactive) | > 100 µM (inactive) | > 100 µM (inactive) | > 100 µM (inactive) | > 10 µM (inactive) | > 100 µM (inactive) | > 100 µM (inactive) | > 100 µM (inactive) | > 100 µM (inactive) | > 100 µM (inactive)
O=C(CC1Sc2ccccc2NC1=O)Nc1ccccc1[N+](=O)[O-] (stereo not given) | > 100 µM (inactive) | > 100 µM (inactive) | > 100 µM (inactive) | > 100 µM (inactive) | > 100 µM (inactive) | > 100 | > 100 µM (inactive) | > 100 µM (inactive) | > 100 µM (inactive) | > 100 µM (inactive) | > 100 µM (inactive) | > 100 µM (inactive) | > 100 µM (inactive) | > 100 µM (inactive) | > 100 µM (inactive) | > 100 µM (inactive) | > 100 µM (inactive) | > 100 µM (inactive) | > 100 µM (inactive) | > 100 µM (inactive)
COc1c(O)c(C=O)c2c(O)c(-c3c(C)cc4c(C(C)C)c(OC)c(O)c(C=O)c4c3O)c(C)cc2c1C(C)C [6,6'-METHOXYGOSSYPOL] | 3.52 µM (inactive) | 6.61 µM (inactive) | 4.72 µM (inactive) | 2.2 µM (inactive) | 5.71 µM (inactive) | 3.74 | 5.75 µM (inactive) | 4.19 µM (inactive) | 2.52 µM (inactive) | 4.32 µM (inactive) | 11.8 µM (inactive) | 3.37 µM (inactive) | 9.86 µM (inactive) | 6.71 µM (inactive) | 4.46 µM (inactive) | 10.9 µM (inactive) | 2.43 µM (inactive) | 11.4 µM (inactive) | 6.08 µM (inactive) | 5.33 µM (inactive)
COc1ccc(C(O)CNC(=O)c2ccccc2)cc1 (stereo not given) | > 100 µM (inactive) | > 100 µM (inactive) | > 100 µM (inactive) | > 100 µM (inactive) | > 100 µM (inactive) | > 100 | > 100 µM (inactive) | > 100 µM (inactive) | > 100 µM (inactive) | > 100 µM (inactive) | > 100 µM (inactive) | > 100 µM (inactive) | > 100 µM (inactive) | > 100 µM (inactive) | > 100 µM (inactive) | > 100 µM (inactive) | > 100 µM (inactive) | > 100 µM (inactive) | > 100 µM (inactive) | > 100 µM (inactive)
